US6706740B2, “Fungicidal heterocyclic aromatic amides and their compositions, methods of use and preparation” (Dow AgroSciences LLC, priority 1999, dated 2004)

Legend:
Erysiphe graminis—ERYSGT = assay: Powdery Mildew of Wheat, in vivo whole plant, 24 Hour Protectant; details: Erysiphe; wheat plants sprayed at 100 ppm, inoculated after 24 hours; control of fungal infection vs untreated plants; read-out: ERYSGT in vivo 1 Day Protectant
[1] = tested on: Rhizoctonia solani (RHIZSO); assay: microbe, parasite or virus in culture; type: cell-based; details: Rhizoctonia solani, read-out: RHIZSO in vitro Growth Inhibition
Ustilago maydis (USTIMA) = assay: microbe, parasite or virus in culture; type: cell-based; details: Mycosarcoma maydis, read-out: USTIMA in vitro Growth Inhibition
Septoria tritici—SEPTTR = assay: Leaf Blotch of Wheat, in vivo whole plant, 24 Hour Protectant; details: Zymoseptoria tritici, 24 h, wheat plants sprayed at 100 ppm, inoculated after 24 hours; control of fungal infection vs untreated plants; read-out: SEPTTR in vivo 1 Day Protectant
[2] = tested on: Magnaporthe grisea (Pyricularia oryzae—PYRIOR); assay: microbe, parasite or virus in culture; type: cell-based; details: Pyricularia oryzae, read-out: PYRIOR in vitro Growth Inhibition
[3] = tested on: Leptosphaeria nodorum—LEPTNO; assay: Glume Blotch of Wheat, in vivo whole plant, 24 Hour Protectant; details: wheat plants sprayed at 100 ppm, inoculated after 24 hours, control of fungal infection vs untreated plants; for pest or weed control at 100 ppm: Leptosphaeria, read-out: LEPTNO in vivo 1 Day Protectant
[4] = tested on: Stagonospora nodorum (Leptosphaeria nodorum—LEPTNO); assay: In vitro fungal growth inhibition, Stagonospora nodorum (LEPTNO); type: cell-based; details: Leptosphaeria; 25 ppm in the growth medium; read-out: LEPTNO in vitro Growth Inhibition
[5] = tested on: Phytophthora infestans—PHYTIN; assay: whole plant or invertebrate; type: in vivo; details: Phytophthora, in Solanum lycopersicum, 24 h, read-out: PHYTIN in vivo 1 Day Protectant
[6] = tested on: Mycosphaerella graminicola (Septoria tritici—SEPTTR); assay: In vitro fungal growth inhibition, Mycosphaerella graminicola (SEPTTR); type: cell-based; details: Zymoseptoria tritici; 25 ppm in the growth medium; read-out: SEPTTR in vitro Growth Inhibition
[7] = tested on: Puccinia recondita—PUCCRT; assay: Brown Rust of Wheat, in vivo whole plant, 24 Hour Protectant; details: Puccinia; wheat plants sprayed at 100 ppm, inoculated after 24 hours; control of fungal infection vs untreated plants; read-out: PUCCRT in vivo 1 Day Protectant
[8] = tested on: Phytophthora infestans (PHYTIN); assay: microbe, parasite or virus in culture; type: cell-based; details: Phytophthora infestans, read-out: PHYTIN in vitro Growth Inhibition

SMILES | pest or weed control at 100 ppm (Erysiphe graminis—ERYSGT) | inhibition at 25 ppm [1] | inhibition at 25 ppm (Ustilago maydis (USTIMA)) | pest or weed control at 100 ppm (Septoria tritici—SEPTTR) | inhibition at 25 ppm [2] | pest or weed control at 100 ppm [3] | inhibition at 25 ppm [4] | pest or weed control at 100 ppm [5] | inhibition at 25 ppm [6] | pest or weed control at 100 ppm [7] | inhibition at 25 ppm [8] | melting point | LEPTNO in vivo 1 Day Protectant [3]
Cc1nc(O)c(C(=O)N[C@H]2COC(=O)[C@H](Cc3ccccc3)[C@@H](OC(=O)C(C)C)[C@H](C)OC2=O)cc1Cl [Compound 531] | 25 to 74% | < 80% | < 80% | 25 to 74% | < 80% | 25 to 74% | < 80% | < 25% | < 80% | < 25% | < 80% | 103 to 108 °C | 
CC(C)C(=O)O[C@H]1[C@H](C)OC(=O)[C@@H](NC(=O)c2nnccc2O)COC(=O)[C@@H]1Cc1ccccc1 [Compound 532] | 25 to 74% | < 80% | < 80% | 25 to 74% | < 80% | 25 to 74% | < 80% | 25 to 74% | < 80% | 25 to 74% | < 80% | 233 °C (dec.) | 
CC1(C)CC(NC(=O)c2nccnc2O)CC(C)(C)C1 [Compound 533] | < 25% | < 80% | < 80% | 25 to 74% | < 80% | 25 to 74% | < 80% | 25 to 74% | < 80% | 25 to 74% | < 80% | 248 to 250 °C (dec.) | 
O=C(Nc1ccc(Oc2cccc(C(F)(F)F)c2)cc1)c1nccnc1O [Compound 535] | < 25% | > 80% | < 80% | 25 to 74% | < 80% | 25 to 74% | < 80% | < 25% | < 80% | 25 to 74% | < 80% | 239 to 243 °C (dec.) | 
Cc1nc(O)c(C(=O)N[C@H]2COC(=O)[C@H](Cc3ccccc3)[C@@H](OC(=O)C(C)C)[C@H](C)OC2=O)nc1C [Compound 536] | < 25% | < 80% | < 80% | 25 to 74% | < 80% |  | < 80% | < 25% | > 80% | 25 to 74% | < 80% | 80 to 83 °C | + +
COc1nc(O)c(C(=O)N[C@H]2COC(=O)[C@H](Cc3ccccc3)[C@@H](OC(=O)C(C)C)[C@H](C)OC2=O)nc1Cl [Compound 537] | < 25% | < 80% | < 80% | 25 to 74% | < 80% |  | < 80% | < 25% | < 80% | 25 to 74% | < 80% | 84 to 86 °C | + +
CC(C)C(=O)O[C@H]1[C@H](C)OC(=O)[C@@H](NC(=O)c2nc(Cl)c(Cl)nc2O)COC(=O)[C@@H]1Cc1ccccc1 [Compound 538] | < 25% | < 80% | < 80% | 25 to 74% | < 80% | 25 to 74% | < 80% | < 25% | < 80% | 25 to 74% | < 80% | 108 to 110 °C | 
CC1(C)CC(NC(=O)c2cncnc2O)CC(C)(C)C1 [Compound 539] | < 25% | < 80% | < 80% | 25 to 74% | < 80% | 25 to 74% | < 80% | < 25% | > 80% | 25 to 74% | < 80% | 263 to 265 °C | 
CC(C)C(=O)O[C@H]1[C@H](C)OC(=O)[C@@H](NC(=O)c2cncnc2O)COC(=O)[C@@H]1Cc1ccccc1 [Compound 540] | < 25% | < 80% | < 80% | 25 to 74% | < 80% | < 25% | < 80% | < 25% | < 80% | < 25% | < 80% | 195 °C (dec.) | 
Cc1ncc(C(=O)NC2CC(C)(C)CC(C)(C)C2)c(O)n1 [Compound 541] | < 25% | < 80% | < 80% | 25 to 74% | < 80% | < 25% | < 80% | < 25% | < 80% | < 25% | < 80% | > 300 °C | 
Cc1ncc(C(=O)N[C@H]2COC(=O)[C@H](Cc3ccccc3)[C@@H](OC(=O)C(C)C)[C@H](C)OC2=O)c(O)n1 [Compound 542] | < 25% | < 80% | < 80% | 25 to 74% | < 80% | < 25% | < 80% | < 25% | < 80% | < 25% | < 80% | 220 °C (dec.) | 
CC1(C)CC(NC(=O)c2nnc(O)nc2O)CC(C)(C)C1 [Compound 543] | < 25% | < 80% | < 80% | < 25% | < 80% | 25 to 74% | < 80% | < 25% | < 80% | < 25% | < 80% | 283 to 285 °C | 
